Test results taken from US20210205264A1, “USE OF DELTA-TOCOTRIENOL FOR TREATING CANCER” (H. LEE MOFFITT CANCER CENTER & RESEARCH INSTITUTE INC., priority 2018, published 2021).

Tests used:
NCM-460 = experiment: Apoptosis induction in NCM-460; format: cell-based
[1] = system: Oct4, Nanog, Sox2, KLF4, c-myc, c-PARP; experiment: Western blot of stem cell transcription factors and c-PARP in CCSCs; format: cell-based, human
[2] = system: intestinal stem cells of ApcMin/+ mice; experiment: Caspase 3 staining of intestinal crypts in ApcMin/+ mice; format: in vivo; details: small intestinal crypts of ApcMin/+ mice
Text: (§1) Although substantial preclinical evidence exists regarding the preventive activity of d-T3 and g-T3 in various types of cancers, there is no report of d-T3 prevention of colon cancer despite evidence of activity in colon cell lines and xenograft models. […] Treatment with aspirin alone reduced adenoma formation by 38%, and treatment with d-T3 alone reduced adenoma formation by 44%, while treatment with the combination of aspirin and d-T3 reduced adenoma formation by 58%.

[3] = system: AOM induced rat colon cancer model; experiment: AOM induced rat colon cancer model; format: in vivo, Fisher 344 rat
Text: FIGS. 3A, 3B, 3C and 3D show the number of polyps (FIG. 3A) and cancer (FIG. 3C) with H&E stain of representative areas of polyp (FIG. 3B) and cancer (FIG. 3D) following no treatment (NT), treatment with vehicle (V), sulindac, and d-T3 in AOM-induced Fisher 344 rat model of colon carcinogenesis.
To confirm the CRC prevention activity of d-T3, the activity of d-T3 was investigated and compared this with sulindac, another established NSAID with chemoprevention activity against CRC in the AOM induced rat colon cancer model.

HCT-116 = experiment: Apoptosis induction in HCT-116; format: cell-based, human
BID = experiment: Activation of BID (tBID) by Western blotting in CCSCs; format: cell-based, human; details: 24-hour treatment; aspirin 5 mM, d-T3 50 μM
Description: (§2) FIGS. 10A, 10B, 10C, and 10D show induction of apoptosis measured by flow cytometry (FIG. 10A) and confocal microscopy (FIG. 10B) in CCSCs after treatment with vehicle, aspirin, d-T3, and aspirin+d-T3. Effect of BID inhibitor on apoptosis in CCSCs after treatment with aspirin or d-T3 (FIG. 10C). Induction oft-BID in CCSCs after treatment with vehicle, aspirin, d-T3, and aspirin+d-T3 (FIG. 10D).
d-T3 can induce selective killing of CCSCs through the BH3 interacting-domain death agonist (BID). […] It should be noted that these in vitro results are consistent with the in vivo observation of the selective induction of apoptosis in APC mutant colon crypt cells in the ApcMin/+ mice but not in the normal intestinal cells of the AOM rat CRC model or NOD/SCID mice. […] Although the proapoptotic activity of d-T3 is a consistent observation of d-T3 anticancer activity in all of the published reports, the mechanism by which d-T3 induces apoptosis is poorly understood. Apoptotic death is regulated by the death receptor (extrinsic) and mitochondrial (intrinsic) pathways. […] To obtain preliminary information regarding the mechanisms by which d-T3 induces apoptosis in CCSCs, the activation of BID was measured after 24-hour treatment with vehicle, aspirin (5 mM), d-T3 (50 μM), and aspirin combined with d-T3 in CCSCs by Western blotting.

[4] = system: MiaPaCa-2 cells stably expressing hCAS; experiment: Cell death in MiaPaCa-2 cells stably over-expressing hCAS; format: cell-based, human; details: hCAS over-expression, p<0.02
Text: To determine whether hCAS over-expression can rescue from δ-T3 effects, MiaPaCa-2 cells stably expressing hCAS were generated by transfecting these cells with the hCAS gene-containing plasmid pCMV6-AC-GFP (Cat #RG211478, […]) and selecting the cells stably expressing hCAS under G418 pressure. MiaPaCa-2 cells expressing the same plasmid without the hCAS gene were also generated as empty vector control. […] The inability of over-expression to entirely overcome the effect of δ-T3 treatment further illustrates the robustness of a δ-T3 therapeutic approach.

ApcMin/+ mice = experiment: Adenoma (intestinal polyp) formation in ApcMin/+ mice; format: in vivo
Text: as §1, with “FIGS. 1A and 1B show the number of intestinal polyps (FIG. 1A) and H&E staining of polyps (FIG. 1B) in ApcMin/+ mice treated with vehicle (V), aspirin (Asp), d-T3, and combination of aspirin+d-T3. Black dots in FIG. 1B point out polyps in the intestine. Although” for “Although”

CCSCs = experiment: Annexin V FITC/PI flow cytometry apoptosis assay in CCSCs; format: cell-based, human; details: 24 hours; d-T3 50 μM, aspirin 5 mM
Description: as §2
d-T3 can induce selective killing of CCSCs through the BH3 interacting-domain death agonist (BID). […] It should be noted that these in vitro results are consistent with the in vivo observation of the selective induction of apoptosis in APC mutant colon crypt cells in the ApcMin/+ mice but not in the normal intestinal cells of the AOM rat CRC model or NOD/SCID mice. […] Although the proapoptotic activity of d-T3 is a consistent observation of d-T3 anticancer activity in all of the published reports, the mechanism by which d-T3 induces apoptosis is poorly understood. Apoptotic death is regulated by the death receptor (extrinsic) and mitochondrial (intrinsic) pathways. These 2 pathways crosstalk under certain conditions through caspase-8-mediated cleavage of BID, a BH3-only Bcl-2 family member. The activated and truncated BID (tBID) then engages the intrinsic pathway for efficient apoptosis induction. To obtain preliminary information regarding the mechanisms by which d-T3 induces apoptosis in CCSCs, the activation of BID was measured after 24-hour treatment with vehicle, aspirin (5 mM), d-T3 (50 μM), and aspirin combined with d-T3 in CCSCs by Western blotting.

β-catenin = β-catenin immunofluorescence and Western blot in CCSCs; format: cell-based, human
Text: FIGS. 9A, 9B, 9C, and 9D show quantification of β-catenin in the nucleus and cytoplasm of CCSCs with confocal microscopy (FIGS. 9A & 9B) after treatment with vehicle, aspirin, d-T3, and aspirin+d-T3.
As noted above, stability of the β-catenin complex by inactivation of APC leads to stabilization and nuclear translocation of β-catenin and to transcriptional activation of β-catenin target genes such as c-Myc and cyclin D1. […] Furthermore, d-T3 inhibition of CCSCs is associated with the downregulation of β-catenin, c-Myc, cyclin D1, and survivin as measured by Western blot in CCSCs (FIG. 9D).

HT-29 = experiment: Apoptosis induction in HT-29; format: cell-based, human

Compound: CC(C)=CCC/C(C)=C/CC/C(C)=C/CC[C@]1(C)CCc2cc(O)cc(C)c2O1 [d-T3, δ-tocotrienol]
- apoptosis (NCM-460): no effect
- expression of Oct4, Nanog, Sox2, KLF4, and c-myc [1]: downregulation
- expression of c-PARP [1]: upregulation
- apoptosis detected by caspase 3 staining [2]: markedly induced apoptosis
- cancer formation [3]: almost completely blocked
- formation of intestinal polyps [3]: significantly inhibited
- apoptosis (HCT-116): significantly induced apoptosis
- activation of tBID (BID): significantly activated
- cancer cell death versus the hCAS vehicle [4]: induces significant cancer cell death
- reduced adenoma formation (ApcMin/+ mice): 44%
- induction of apoptosis (CCSCs): much more effective than aspirin
- β-catenin, c-Myc, cyclin D1, and survivin by Western blot (β-catenin): downregulation
- amount of β-catenin translocated to the nucleus (β-catenin; immunofluorescence staining): significantly decreased
- apoptosis (HT-29): significantly induced apoptosis
